Several values for one entry are separate records, joined by “and”; a condition that tells them apart may be missing. Identical values can stand only once.
Columns and labels:
[1] = biological target: Glycogen synthase kinase-3 alpha (Homo sapiens, UniProt P49840); test: TR-FRET Assay
In short: (§1)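 Kinase activity, measured after a 30-minute compound preincubation, was stopped with EDTA and quantified by TR-FRET using a Tb-labelled pSer641 antibody paired with streptavidin-d2.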

[2] = biological target: Glycogen synthase kinase-3 beta (Homo sapiens, UniProt P49841); test: TR-FRET Assay
In short: as §1

Glycogen synthase kinase-3 beta, sequence (P49841 whole entry): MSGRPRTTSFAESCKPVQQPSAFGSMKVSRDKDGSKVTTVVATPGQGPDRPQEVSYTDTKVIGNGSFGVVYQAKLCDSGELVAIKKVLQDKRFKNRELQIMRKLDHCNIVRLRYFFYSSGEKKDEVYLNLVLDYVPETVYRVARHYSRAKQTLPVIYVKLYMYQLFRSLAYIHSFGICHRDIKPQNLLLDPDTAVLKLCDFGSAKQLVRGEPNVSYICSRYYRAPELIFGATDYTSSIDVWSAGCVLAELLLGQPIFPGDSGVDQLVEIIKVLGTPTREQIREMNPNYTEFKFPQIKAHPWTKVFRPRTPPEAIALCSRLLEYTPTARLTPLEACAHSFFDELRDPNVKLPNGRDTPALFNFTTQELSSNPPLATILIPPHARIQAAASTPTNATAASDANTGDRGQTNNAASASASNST
Glycogen synthase kinase-3 alpha, sequence (P49840 whole entry): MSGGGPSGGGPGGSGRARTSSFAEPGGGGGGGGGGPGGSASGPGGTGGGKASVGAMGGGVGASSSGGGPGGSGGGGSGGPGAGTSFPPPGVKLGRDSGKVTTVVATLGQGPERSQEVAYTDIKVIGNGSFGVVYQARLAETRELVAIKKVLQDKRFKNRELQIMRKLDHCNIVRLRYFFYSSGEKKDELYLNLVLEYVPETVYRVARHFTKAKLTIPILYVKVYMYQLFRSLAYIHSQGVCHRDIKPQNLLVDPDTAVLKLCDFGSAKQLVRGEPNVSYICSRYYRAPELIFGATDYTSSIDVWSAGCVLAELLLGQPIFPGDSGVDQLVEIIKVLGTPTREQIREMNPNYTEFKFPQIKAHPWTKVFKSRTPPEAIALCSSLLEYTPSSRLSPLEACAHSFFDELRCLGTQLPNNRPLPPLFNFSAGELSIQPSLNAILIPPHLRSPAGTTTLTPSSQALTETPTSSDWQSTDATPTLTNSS

SMILES	IC50 [1]	IC50 [2]
CC1(C)CC(=O)C2=C(C1)NC1N=NC(CC(F)(F)F)=C1[C@]21CCc2c(F)cccc21 (stereo partly specified) [US20250313563, Compound 816838]	100 to 1000 nM	100 to 1000 nM
CC1(C)CC(=O)C2=C(C1)NC1=C(CN=N1)[C@@]21COC2(CCC2)C1 [US20250313563, Compound 917129]	100 to 1000 nM	100 to 1000 nM
C[C@@H]1C[C@@H]2C[C@@]3(C[C@@H]2C1)C1=CN=NC1NC1=C3C(=O)CC(C)(C)C1 (stereo partly specified) [US20250313563, Compound 943898]	< 100 nM	< 100 nM
CC[C@@]1(c2cccc(C(F)(F)F)c2)C2=CN=NC2NC2=C1C(=O)N(C)C(C)(C)C2 (stereo partly specified) [US20250313563, Compound 826791]	100 to 1000 nM	1000 to 5000 nM
Cn1cc(S(=O)(=O)N2CCC3(CC2)C2=C(N=NC2)NC2=C3C(=O)CC(C)(C)C2)cn1 [US20250313563, Compound 901467]	< 100 nM and 100 to 1000 nM	< 100 nM and 1000 to 5000 nM
CC(C)(C)CC1=C2C(N=N1)NC1=C(C(=O)CC(C)(C)C1)C21CCCc2ccccc21 (stereo unspecified) [US20250313563, Compound 810495]	100 to 1000 nM	< 100 nM
CC1(C)CC(=O)C2=C(C1)NC1=C(CN=N1)C21CCC2(CCC(=O)N2C(=O)OC(C)(C)C)CC1 (stereo unspecified) [US20250313563, Compound 912217]	1000 to 5000 nM	> 5000 nM
CC1(C)CC(=O)C2=C(C1)NC1=C(CN=N1)C21CCN(S(=O)(=O)c2ccc(C(F)F)cc2)CC1 [US20250313563, Compound 947248]	< 100 nM	< 100 nM
CC1(C)CC(=O)C2=C(C1)NC1=C(CN=N1)C21COC2(CN(C(=O)C3CCC3)C2)C1 (stereo unspecified) [US20250313563, Compound 947288]	< 100 nM and 100 to 1000 nM	< 100 nM and 100 to 1000 nM
COc1cccc(S(=O)(=O)N2CCC3(CC2)C2=C(N=NC2)NC2=C3C(=O)CC(C)(C)C2)c1F [US20250313563, Compound 945656]	< 100 nM	< 100 nM and 100 to 1000 nM
CC1(C)CC(=O)C2=C(C1)NC1=C(CN=N1)C21CCN(S(=O)(=O)c2ccc3c(c2)CCO3)CC1 [US20250313563, Compound 913251]	< 100 nM	< 100 nM
Cn1ccc(S(=O)(=O)N2CCCC3(CC2)C2=CN=NC2NC2=C3C(=O)CC(C)(C)C2)n1 (stereo unspecified) [US20250313563, Compound 917138]	< 100 nM	< 100 nM
CC1(C)CC(=O)C2=C(C1)NC1=C(CN=N1)[C@@]21CCO[C@@H](C(C)(C)C)C1 [US20250313563, Compound 912113]	1000 to 5000 nM	1000 to 5000 nM
CC[C@@]1(c2cccc(C(F)(F)F)c2)C2=CN=NC2NC2=C1C(=O)N(c1cn(C)c(C)n1)CC2 (stereo partly specified) [US20250313563, Compound 952479]	> 5000 nM	> 5000 nM
CC(=O)N1CC2(C1)C[C@]1(CO2)C2=C(N=NC2)NC2=C1C(=O)CC(C)(C)C2 [US20250313563, Compound 926872]	100 to 1000 nM	100 to 1000 nM
CC[C@]1(c2cccc(S(=O)(=O)C(C)C)c2)C2=C(CC(C)(C)NC2=O)NC2N=NC(C(F)(F)F)=C21 (stereo partly specified) [US20250313563, Compound 948419]	< 100 nM	< 100 nM
CC[C@]1(c2ccc(OC(C)C)cc2)C2=C(CC(C)(C)CC2=O)NC2N=NC(C(F)(F)F)=C21 (stereo partly specified) [US20250313563, Compound 947868]	< 100 nM	< 100 nM

More lines, now with the values ahead:

IC50 [1]	IC50 [2]	SMILES
< 100 nM	< 100 nM and 1000 to 5000 nM	CCC1(c2cccc(-c3cnn(C)c3)c2)C2=C(CC(C)(C)NC2=O)NC2N=NC(C(F)F)=C21 (stereo unspecified) [US20250313563, Compound 949171]
< 100 nM	100 to 1000 nM	CCC1(c2cccc(S(=O)(=O)CC3CC3)c2)C2=CN=NC2NC2=C1C(=O)NC(C)(C)C2 (stereo unspecified) [US20250313563, Compound 948177]
< 100 nM and 100 to 1000 nM	< 100 nM and 100 to 1000 nM	CCC1(c2cccc(-c3cc(C)nnc3C)c2)C2=C(CC(C)(C)NC2=O)NC2N=NC(C(F)(F)F)=C21 (stereo unspecified) [US20250313563, Compound 949174]
< 100 nM	100 to 1000 nM	CCC1(c2cccc(-c3cnn(C4CC4)c3)c2)C2=C(CC(C)(C)CC2=O)NC2N=NC(C)=C21 (stereo unspecified) [US20250313563, Compound 883997]
< 100 nM	100 to 1000 nM	CCC1(c2cccc(-c3cnn4c3CCC4)c2)C2=CN=NC2NC2=C1C(=O)CC(C)(C)C2 (stereo unspecified) [US20250313563, Compound 947494]
< 100 nM	< 100 nM	CCC1(c2cccc(-c3cnn(C)c3C)c2)C2=C(CC(C)(C)CC2=O)NC2N=NC(C)=C21 (stereo unspecified) [US20250313563, Compound 883993]
1000 to 5000 nM	> 5000 nM	CC[C@@]1(c2cccc(-c3ccnc(C)c3)c2)C2=C(N=NC2)NC2=C1C[C@@H]1CC[C@H]2C1 [US20250313563, Compound 943920]
< 100 nM	< 100 nM	CC[C@@]1(c2cccc(-c3ccnn3C)c2)C2=CN=NC2NC2=C1C(=O)NC1(CCCC1)C2 (stereo partly specified) [US20250313563, Compound 948018]
< 100 nM	100 to 1000 nM	CC[C@@]1(c2cccc(Br)c2)C2=CN=NC2NC2=C1C(=O)C[C@H](C)C2 (stereo partly specified) [US20250313563, Compound 810487]
100 to 1000 nM	1000 to 5000 nM	CC[C@]1(c2cccc(-c3ccnc(OC(F)(F)F)c3)c2)C2=CN=NC2NC2=C1C(=O)CC(C)(C)C2 (stereo partly specified) [US20250313563, Compound 943988]
< 100 nM and 100 to 1000 nM	< 100 nM and 1000 to 5000 nM	CC[C@@]1(c2cccc(-c3ccncc3C)c2)C2=C(CC(C)(C)NC2=O)NC2N=NC(C)=C21 (stereo partly specified) [US20250313563, Compound 947414]
100 to 1000 nM	> 5000 nM	CC[C@]1(c2cccc(-c3ccnn3C3CC3(F)F)c2)C2=CN=NC2NC2=C1C(=O)NC(C)(C)C2 (stereo partly specified) [US20250313563, Compound 949518]
1000 to 5000 nM	> 5000 nM	CC[C@]1(c2cccc(-c3ccnc(C)c3)c2)C2=CN=NC2NC2=C1C(=O)[C@@H](F)C(C)(C)C2 (stereo partly specified) [US20250313563, Compound 945486]
100 to 1000 nM	1000 to 5000 nM	CCC1(c2cccc(Br)c2)C2=C(N=NC2)NC2=C1C(=O)C(C)(C)C2 (stereo unspecified) [US20250313563, Compound 949805]
> 5000 nM	> 5000 nM	CC[C@@]1(c2cccc(-c3ccnc(C)c3)c2)C2=CN=NC2NC2=C1C(=O)C[C@H](C)C2 (stereo partly specified) [US20250313563, Compound 932638]
< 100 nM	< 100 nM	CC[C@@]1(c2cccc(-c3cncn3C)c2)C2=C(CC(C)(C)CC2=O)NC2N=NC(C)=C21 (stereo partly specified) [US20250313563, Compound 913032]
> 5000 nM	> 5000 nM	CC[C@@]1(c2cccc(CN(C)c3ccnc(C)c3)c2)C2=CN=NC2NC2=C1C(=O)CC(C)(C)C2 (stereo partly specified) [US20250313563, Compound 932665]
< 100 nM	100 to 1000 nM	CCC1(c2cccc(-c3ccncc3F)c2)C2=C(CC(C)(C)NC2=O)NC2N=NC(F)=C21 (stereo unspecified) [US20250313563, Compound 948999]
< 100 nM and 100 to 1000 nM	100 to 1000 nM and > 5000 nM	CC[C@]1(c2cccc(N(C)c3ncccn3)c2)C2=C(N=NC2)NC2=C1C(=O)C(C)(C)C2 [US20250313563, Compound 952212]
< 100 nM	< 100 nM	CC[C@@]1(c2cccc(-c3cn(C)nc3C3CC3)c2)C2=CN=NC2NC2=C1C(=O)NC(C)(C)C2 (stereo partly specified) [US20250313563, Compound 951706]
100 to 1000 nM	1000 to 5000 nM	CC[C@]1(c2cccc(-c3ccnc4ccc(Cl)cc34)c2)C2=CN=NC2NC2=C1C(=O)NC(C)(C)C2 (stereo partly specified) [US20250313563, Compound 948530]
